Assay results published in patent US6258811A, “Methods for preventing, inhibiting or treating graft rejection reactions in graft-versus-host disease (GVHD) and organ transplantation” (Eisai Co., Ltd., priority 1996, dated 2001).

Tests used:
RAR-α = biological target: T1, RAR-α (Homo sapiens, UniProt P10276); assay: RAR-mediated transcriptional promotion activity, RAR-α; format: cell-based; settings: ED30 of all-trans-retinoic acid taken as 1; 3 μM all-trans-retinoic acid = 100%
T1 sequence (P10276 1-462): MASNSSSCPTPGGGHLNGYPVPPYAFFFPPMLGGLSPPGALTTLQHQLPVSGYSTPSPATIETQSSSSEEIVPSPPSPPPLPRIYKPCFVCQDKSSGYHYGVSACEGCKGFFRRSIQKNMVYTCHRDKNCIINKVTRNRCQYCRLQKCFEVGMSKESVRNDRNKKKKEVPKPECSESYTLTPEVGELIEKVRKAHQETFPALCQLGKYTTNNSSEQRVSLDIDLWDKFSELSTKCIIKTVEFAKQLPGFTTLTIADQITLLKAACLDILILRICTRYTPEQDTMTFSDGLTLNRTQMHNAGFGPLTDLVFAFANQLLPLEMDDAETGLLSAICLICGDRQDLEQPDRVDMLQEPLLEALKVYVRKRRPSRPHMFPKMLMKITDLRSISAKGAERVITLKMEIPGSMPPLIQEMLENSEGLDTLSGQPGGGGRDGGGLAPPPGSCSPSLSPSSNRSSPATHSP
Text: (§1) Retinoic acid receptor (RAR) binding assay and RAR-mediated transcriptional promotion activity of compound represented by formula (I): […]

RAR-γ = biological target: T2, RAR-γ (Homo sapiens, UniProt P13631); assay: RAR-mediated transcriptional promotion activity, RAR-γ; format: cell-based; settings: ED30 of all-trans-retinoic acid taken as 1; 3 μM all-trans-retinoic acid = 100%
T2 sequence (P13631 1-454): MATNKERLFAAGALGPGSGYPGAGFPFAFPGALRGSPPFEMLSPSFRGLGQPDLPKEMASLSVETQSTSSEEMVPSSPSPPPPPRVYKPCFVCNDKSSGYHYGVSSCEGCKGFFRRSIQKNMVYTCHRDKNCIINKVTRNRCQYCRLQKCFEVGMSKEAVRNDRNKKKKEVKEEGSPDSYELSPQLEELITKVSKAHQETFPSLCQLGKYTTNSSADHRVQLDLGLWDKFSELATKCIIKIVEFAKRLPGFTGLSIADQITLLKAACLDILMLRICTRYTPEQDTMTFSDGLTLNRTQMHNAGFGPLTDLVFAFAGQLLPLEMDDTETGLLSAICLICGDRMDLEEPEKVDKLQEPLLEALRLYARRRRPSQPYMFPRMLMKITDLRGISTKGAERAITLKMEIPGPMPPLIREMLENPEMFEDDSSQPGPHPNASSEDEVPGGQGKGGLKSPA
Text: as §1

RAR-β [1] = biological target: T3, RAR-β (Homo sapiens, UniProt P10826); assay: RAR-mediated transcriptional promotion activity, RAR-β; format: cell-based; settings: ED30 of all-trans-retinoic acid taken as 1; 3 μM all-trans-retinoic acid = 100%
T3 sequence (P10826 1-455): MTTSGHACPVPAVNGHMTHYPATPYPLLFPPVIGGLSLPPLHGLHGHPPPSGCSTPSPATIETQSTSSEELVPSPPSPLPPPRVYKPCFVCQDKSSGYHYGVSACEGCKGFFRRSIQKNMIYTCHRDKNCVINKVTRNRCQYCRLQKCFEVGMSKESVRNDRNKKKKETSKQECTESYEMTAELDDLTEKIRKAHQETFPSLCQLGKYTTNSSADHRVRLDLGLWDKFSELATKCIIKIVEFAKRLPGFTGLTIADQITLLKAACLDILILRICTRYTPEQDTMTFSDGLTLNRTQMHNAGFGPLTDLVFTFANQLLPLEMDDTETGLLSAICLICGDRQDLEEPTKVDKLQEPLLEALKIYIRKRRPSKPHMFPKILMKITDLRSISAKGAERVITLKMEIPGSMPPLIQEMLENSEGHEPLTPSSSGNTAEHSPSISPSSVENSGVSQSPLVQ
Text: as §1

rat adjuvant arthritis = settings: Science 221, 756, 1983; cited from earlier work
patients = settings: background; cited from earlier work
P-815(H-2d) = assay: Acute GVHD model: cytotoxic T cell activity of donor on host; format: in vivo, mice (BDF1 hosts, C57BL/6N donors); settings: oral, once a day, 12 to 13 days after cell transfer
Text: (§2) A graft-versus-host disease (GVHD) model experiment was effected in accordance with the method reported by Durei et al. (J. Clin. Invest., 94, 1333 1994.).
(§3) As the indication of an acute GVHD model (1), use was made of the cytotoxic T cell activity of a donor on a host. As the indication of a chronic GVHD model (2), use was made of the blood antiDNA antibody titer.
In the transplantation, BDF1 mice (H-2b/d) and C57BL/6N mice (H-2b) were employed respectively as the hosts and donors. 5×10^7 /mouse of donors' spleen cells were transferred into the hosts via the tail vein. 4-{2-[5-(4,7-Dimethylbenzofuran-2-yl)pyrrolyl]}benzoic acid (compound A) was suspended in a 0.5% aqueous solution of methylcellulose and then orally administered to the hosts once a day from the first day of the cell transfer to the day before the measurement of the cytotoxic T cell activity. The 0.5% aqueous solution of methylcellulose alone was similarly administered to the control group. 12 to 13 days after the cell transfer, the spleen of each host animal was taken out and a suspension of the spleen cells to be used as effector cells was prepared. As the target cells, use was made of P-815(H-2d) which were cultured together with the effector cells for 4 hours. The cytotoxicity (%) was expressed as the percentage of ^51 Cr liberated into the culture supernatant during this culture time to the total radioactivity.

[2] = test system: serum antiDNA antibody titer (IgG class); assay: Chronic GVHD model: serum antiDNA antibody titer (ELISA); format: in vivo, mice (BDF1 hosts, DBA/2 donors); settings: oral, once a day, two weeks after cell transfer
Text: as §2, §3
In the transplantation, BDF1 mice (H-2b/d) and DBA/2 mice (H-2d) were employed respectively as the hosts and donors. 5×10^7 /mouse of donors' spleen cells were transferred into the hosts via the tail vein. 4-{2-[5-(4,7-Dimethylbenzofuran-2-yl)pyrrolyl]}benzoic acid was dissolved in a 0.5% aqueous solution of methylcellulose and then orally administered to the hosts once a day from the first day of the cell transfer to the day before the blood sampling. The 0.5% aqueous solution of methylcellulose alone was similarly administered to the control group. Two weeks after the cell transfer, the blood of each host animal was sampled and the serum antiDNA antibody titer (IgG class) was measured by the ELISA method.

RAR-β [3] = biological target: T3, RAR-β; assay: Receptor binding assay, RAR-β
Text: as §1

chronic GVHD = settings: cyclosporin A and prednisolone, bone marrow transplantation patients; cited from earlier work
immune system = settings: background; cited from earlier work

Transcriptional promotion activity, Relative ED30, RAR-α (RAR-α) | Transcriptional promotion activity, Relative ED30, RAR-γ (RAR-γ) | Transcriptional promotion activity, Relative ED30, RAR-β (RAR-β [1]) | SMILES | further results
0.33 | 790 | 91 | O=C(O)c1ccc(-c2ccc(-c3cc4c(F)ccc(Cl)c4o3)[nH]2)cc1 | 
0.33 | 95 | 8.1 | O=C(O)c1ccc(-c2ccc(-c3cc4c(C(F)(F)F)ccc(F)c4o3)[nH]2)cc1 | 
0.39 | 31 | 2.8 | Cc1ccc(C)c2c(F)c(-c3ccc(-c4ccc(C(=O)O)cc4)[nH]3)oc12 | 
0.26 | 120 | 24 | CCc1ccc(C)c2cc(-c3ccc(-c4ccc(C(=O)O)cc4)[nH]3)oc12 | 
0.21 | 19 | 1.4 | CC1(C)CCC(C)(C)c2nc(-c3ccc(-c4ccc(C(=O)O)cc4)[nH]3)cnc21 | 
 |  |  | CC1=C(/C=C/C(C)=C/C=C/C(C)=C\C(=O)O)C(C)(C)CCC1 [13-cis-retinoic acid] | secondary inflammation in rat adjuvant arthritis (rat adjuvant arthritis): significantly suppressed
 |  |  | Cn1cnc([N+](=O)[O-])c1Sc1ncnc2nc[nH]c12 [azathioprine] | side effects (patients): bone marrow depression, hepatic disorder, pancreatitis, digestive tract symptoms, cardiopalmus and respiratory disorder
 |  |  | Cc1ccc(C)c2oc(-c3ccc(-c4ccc(C(=O)O)cc4)[nH]3)cc12 [compound A, 4-{2-[5-(4,7-Dimethylbenzofuran-2-yl)pyrrolyl]}benzoic acid] | minimal effective dose (P-815(H-2d); Mus musculus, P815, read-out: dose from which induction of the cytotoxic T cell activity was inhibited dose-dependently): ≥ 0.1 mg/kg; induction of the cytotoxic T cell activity (P-815(H-2d)): strongly inhibited the induction of the cytotoxic T cell activity dose-dependently; minimal effective dose ([2]; Mus musculus, 336 h, read-out: dose from which serum antiDNA antibody titer was inhibited dose-dependently): ≥ 0.3 mg/kg; serum antiDNA antibody titer [2]: strongly inhibited the serum antiDNA antibody titer dose-dependently
 |  |  | O=C(O)c1ccc(-c2ccc(-c3cc4c(Cl)ccc(Cl)c4o3)[nH]2)cc1 [drawing 8] | IC50 (RAR-β [3]): 500 nM
1.0 | 1400 | 160 | O=C(O)c1ccc(-c2ccc(-c3cc4c(Cl)ccc(Cl)c4o3)[nH]2)cc1 [drawing 15] | 
 |  |  | CN(Cc1cnc2nc(N)nc(N)c2n1)c1ccc(C(=O)N[C@@H](CCC(=O)O)C(=O)O)cc1 [methotrexate] | side effects (patients): bone marrow depression, hepatic/renal function disorder, mucosal disorder, psychoneurosis, interstitial pneumonia, pulmonary fibrosis, etc.
 |  |  | C[C@]12C=CC(=O)C=C1CC[C@@H]1[C@@H]2[C@@H](O)C[C@@]2(C)[C@H]1CC[C@]2(O)C(=O)CO [prednisolone] | effect on chronic GVHD (chronic GVHD): no satisfactory effect; side effects (patients): induced infectious diseases, peptic ulcer, etc.
 |  |  | CC1=C(/C=C/C(C)=C/C=C/C(C)=C/C(=O)O)C(C)(C)CCC1 [retinoic acid] | effect on the immune system (immune system): suppressive effect on the immune system
 |  |  | C=CC[C@@H]1/C=C(\C)C[C@H](C)C[C@H](OC)[C@H]2O[C@@](O)(C(=O)C(=O)N3CCCC[C@H]3C(=O)O[C@H](/C(C)=C/[C@@H]3CC[C@@H](O)[C@H](OC)C3)[C@H](C)[C@@H](O)CC1=O)[C@H](C)C[C@@H]2OC [tacrolimus (FK 506), tacrolimus] | side effects (patients): renal function disorder, shock, elevation of blood pressure, heart failure, pancreatitis,hemolytic-uremic syndrome, thrombotic thrombopenia, purpura and hyperglycemia

SMILES | Transcriptional promotion activity, Relative ED30, RAR-α (RAR-α) | Transcriptional promotion activity, Relative ED30, RAR-γ (RAR-γ) | Transcriptional promotion activity, Relative ED30, RAR-β (RAR-β [1]) | further results
Cc1ccc(C)c2oc(-c3ccc(-c4ccc(C(=O)O)cc4)[nH]3)cc12 [drawing 14] | 0.4 | 191 | 13 | 
